Results published in ChEMBL document CHEMBL3272024, “(Acylaryloxy)acetic acid diuretics. 1. (2-Alkyl- and 2,2-dialkyl-1-oxo-5-indanyloxy)acetic acids” (J Med Chem, 1977).

Key:
[1] = system: Pan troglodytes; assay: Natriuretic activity in chimpanzee assessed as change sodium level in urine measured per min at 5 mg/kg, po; type: functional
[2] = system: Pan troglodytes; assay: Ratio of change in urate excretion to change in inulin excretion in chimpanzee in urine at 5 mg/kg, po; type: functional
[3] = system: Canis familiaris; assay: Diuretic activity in dog assessed as sodium level in urine collected for 2 hrs at 5 mg/kg, iv over a period of 5 mins (reference value: 5 to 30 microEq); type: functional, Canis lupus familiaris
[4] = system: Canis familiaris; assay: Diuretic activity in dog assessed as urine volume collected for 2 hrs at 5 mg/kg, iv over a period of 5 mins (reference value: 1 to 2 mL); type: functional, Canis lupus familiaris
[5] = system: Canis familiaris; assay: Diuretic activity in dog assessed as chloride level in urine collected for 2 hrs at 5 mg/kg, iv over a period of 5 mins (reference value: 1 to 10 microEq); type: functional, Canis lupus familiaris
[6] = system: Canis familiaris; assay: Diuretic activity in dog assessed as potassium level in urine collected for 2 hrs at 5 mg/kg, iv over a period of 5 mins (reference value: 5 to 30 microEq); type: functional, Canis lupus familiaris
[7] = Acute toxicity in iv dosed mouse; type: organism-based; conditions: in vivo
[8] = system: Rattus norvegicus; assay: Natriuretic activity in po dosed Charles River rat assessed as sodium level in urine per cage collected 0.5 hrs interval relative to 2-(3,6,7-trimethyl-1-oxo-2,3-dihydro-1H-inden-5-yloxy)acetic acid; type: functional

Compound | Activity [1] [uEq] | Ratio [2] | also measured
CCC1C(=O)c2c(cc(OCC(=O)O)c(Cl)c2Cl)C1c1ccccn1 (configuration not stated) | 0 | 0.08 | –
O=C(O)COc1cc2c(c(Cl)c1Cl)C(=O)C1(CCCCC1)C2 | 489 | 0.05 | –
CCCCC1Cc2cc(OCC(=O)O)c(Cl)c(Cl)c2C1=O (configuration not stated) | 126 | 0.11 | –
CCC1C(=O)c2c(cc(OCC(=O)O)c(Cl)c2Cl)C1c1ccccc1 (configuration not stated) | 223 | 0.28 | –
CC12CCCCC1c1cc(OCC(=O)O)c(Cl)c(Cl)c1C2=O (configuration not stated) | 406 | 0.39 | –
O=C(O)COc1cc2c(c(Cl)c1Cl)C(=O)C1(CCCC1)C2 | 624 | 0.11 | Activity [3]: 330 uEq; Activity [4]: 5 mL; Activity [5]: 254 uEq; Activity [6]: 47 uEq
CC1(C2CCCC2)Cc2cc(OCC(=O)O)c(Cl)c(Cl)c2C1=O (single isomer, unassigned; enantiomer 1) | – | – | Activity ([1]; 5 mg/kg): 325 uEq; Ratio ([2]; 5 mg/kg): 0.1
CC(C)C1(C)Cc2cc(OCc3nnn[nH]3)c(Cl)c(Cl)c2C1=O (configuration not stated) | 174 | 0.17 | –
CCCC1Cc2cc(OCC(=O)O)c(Cl)c(Cl)c2C1=O (configuration not stated) | – | 0.19 | –
Cc1c(OCC(=O)O)cc2c(c1C)C(=O)C(C1CCCC1)C2 (configuration not stated) | 0 | 0.43 | –
CC(C)C1Cc2cc(OCC(=O)O)c(Cl)c(Cl)c2C1=O (configuration not stated) | 649 | 0.18 | Activity [3]: 281 uEq; Activity [4]: 4 mL; LD50 [7]: 505 mg/kg; Activity [5]: 330 uEq; Ratio [8]: 3.2; Activity [6]: 44 uEq
O=C(O)COc1cc2c(c(Cl)c1Cl)C(=O)C(C1CCCC1)C2 (single isomer, unassigned; (-)) | – | – | Activity ([1]; 5 mg/kg): 292 uEq; Ratio ([2]; 5 mg/kg): 0.1
CC(C)C1(C)Cc2cc(OCC(=O)O)c(Cl)c(Cl)c2C1=O (single isomer, unassigned; enantiomer 2) | – | – | Activity ([1]; 5 mg/kg): 992 uEq; Ratio ([2]; 5 mg/kg): 0.06
O=C(O)COc1cc2c(c(Cl)c1Cl)C(=O)C(C1CCCCC1)C2 (configuration not stated) | 310 | 0.21 | –
O=C1c2c(cc(OCc3nnn[nH]3)c(Cl)c2Cl)CC12CCCCC2 | 0 | 0.02 | –
CC1(C2CCCC2)Cc2cc(OCC(=O)O)c(Cl)c(Cl)c2C1=O (single isomer, unassigned; enantiomer 2) | – | – | Activity ([1]; 5 mg/kg): 268 uEq; Ratio ([2]; 5 mg/kg): 0.17
Cc1c(OCC(=O)O)cc2c(c1C)C(=O)C(C(C)C)C2 (configuration not stated) | 153 | 0.15 | Activity [3]: 154 uEq; Activity [4]: 2 mL; Activity [5]: 100 uEq; Activity [6]: 15 uEq
CC(C)C1C(=O)c2c(cc(OCC(=O)O)c(Cl)c2Cl)C1c1ccccc1 (configuration not stated) | 240 | 0.25 | –
CC1Cc2cc(OCC(=O)O)c(Cl)c(Cl)c2C1=O (configuration not stated) | – | – | LD50 [7]: 354 mg/kg; Ratio [8]: 1
CC1(Cc2ccccc2)Cc2cc(OCC(=O)O)c(Cl)c(Cl)c2C1=O (configuration not stated) | 251 | 0.18 | –
O=C(O)COc1cc2c(c(Cl)c1Cl)C(=O)C(CC1CCCC1)C2 (configuration not stated) | 105 | 0.05 | –
CC(C)C1Cc2cc(OCc3nnn[nH]3)c(Cl)c(Cl)c2C1=O (configuration not stated) | 42 | 0.07 | –
CC1(C)C(=O)c2c(cc(OCC(=O)O)c(Cl)c2Cl)C1c1ccccc1 (configuration not stated) | 22 | 0.1 | –
O=C1c2c(cc(OCc3nnn[nH]3)c(Cl)c2Cl)CC12CCCC2 | 0 | 0.05 | –

Compound | Activity [1] [uEq] | Ratio [2] | also measured
O=C1c2c(cc(OCc3nnn[nH]3)c(Cl)c2Cl)CC1C1CCCC1 (configuration not stated) | 56 | 0.18 | –
CCC1(C)Cc2cc(OCC(=O)O)c(Cl)c(Cl)c2C1=O (configuration not stated) | 520 | 0.07 | Activity [3]: 360 uEq; Activity [4]: 4 mL; LD50 [7]: 239 mg/kg; Activity [5]: 450 uEq; Ratio [8]: 15; Activity [6]: 62 uEq
CC(C)(C)C1Cc2cc(OCC(=O)O)c(Cl)c(Cl)c2C1=O (configuration not stated) | 106 | 0 | –
CC1(C)Cc2cc(OCC(=O)O)c(Cl)c(Cl)c2C1=O | 535 | 0.04 | LD50 [7]: 268 mg/kg; Ratio [8]: 3.9
NS(=O)(=O)c1cc2c(cc1Cl)NCNS2(=O)=O [HYDROCHLOROTHIAZIDE] | 144 | – | Activity [3]: 166 uEq; Activity [4]: 3 mL; Activity [5]: 156 uEq; Activity [6]: 33 uEq
CC1c2cc(OCc3nnn[nH]3)c(Cl)c(Cl)c2C(=O)C1C1CCCC1 (configuration not stated) | 19 | 0.07 | –
C=CCC1(C)Cc2cc(OCC(=O)O)c(Cl)c(Cl)c2C1=O (configuration not stated) | 81 | 0.01 | Activity [3]: 175 uEq; Activity [4]: 4 mL; Activity [5]: 171 uEq; Activity [6]: 37 uEq
Cc1c(OCC(=O)O)cc2c(c1Cl)C(=O)C(C)(C1CCCC1)C2 (configuration not stated) | 86 | 0.24 | –
CC1(C2CCCC2)Cc2cc(OCC(=O)O)c(Cl)c(Cl)c2C1=O (racemic) | – | – | Activity ([1]; 5 mg/kg): 425 uEq; Activity [3]: 454 uEq; Activity [4]: 4 mL; Ratio ([2]; 5 mg/kg): 0.2; LD50 [7]: 213 mg/kg; Activity [5]: 478 uEq; Ratio [8]: 5.4; Activity [6]: 48 uEq
CC1C(=O)c2c(cc(OCC(=O)O)c(Cl)c2Cl)C1c1ccccc1 (configuration not stated) | 64 | 0.12 | –
O=C(O)COc1cc2c(c(Cl)c1Cl)C(=O)C(C1CCCC1)C2 (single isomer, unassigned; (+)) | – | – | Activity ([1]; 5 mg/kg): 300 uEq; Ratio ([2]; 5 mg/kg): 0.26
CC(C)C1(C)Cc2cc(OCC(=O)O)c(Cl)c(Cl)c2C1=O (racemic) | – | – | Activity ([1]; 5 mg/kg): 506 uEq; Activity [3]: 185 uEq; Activity [4]: 2 mL; Ratio ([2]; 5 mg/kg): 0.03; LD50 [7]: 244 mg/kg; Activity [5]: 218 uEq; Ratio [8]: 53; Activity [6]: 35 uEq
CCC1(C)C(=O)c2c(cc(OCC(=O)O)c(Cl)c2Cl)C1c1ccccc1 (configuration not stated) | 0 | 0 | –
O=C(O)COc1cc2c(c(Cl)c1Cl)C(=O)C(C1CCCC1)C2c1ccccc1 (configuration not stated) | 22 | 0.25 | –
CC(C)C1(C)Cc2cc(OCC(=O)O)c(Cl)c(Cl)c2C1=O (single isomer, unassigned; (+)) | – | – | Activity ([1]; 5 mg/kg): 1593 uEq; Ratio ([2]; 5 mg/kg): 0.41
CCCC1(CC)Cc2cc(OCC(=O)O)c(Cl)c(Cl)c2C1=O (configuration not stated) | 341 | 0.05 | –
CCC1(C2CCCC2)Cc2cc(OCC(=O)O)c(Cl)c(Cl)c2C1=O (configuration not stated) | 231 | 0.12 | –
CCC1Cc2cc(OCc3nnn[nH]3)c(Cl)c(Cl)c2C1=O (configuration not stated) | 28 | 0.11 | –
CCC1C(=O)c2c(cc(OCC(=O)O)c(Cl)c2Cl)C1c1cccnc1 (configuration not stated) | 25 | 0.07 | –
O=C(O)COc1cc2c(c(Cl)c1Cl)C(=O)C1CCCCC21 (configuration not stated) | 85 | 0.2 | –
Cc1c(OCC(=O)O)cc2c(c1Cl)C(=O)C(C(C)C)C2 (configuration not stated) | 185 | 0.07 | Activity [3]: 218 uEq; Activity [4]: 3 mL; Activity [5]: 204 uEq; Activity [6]: 50 uEq
Cc1c(OCC(=O)O)cc2c(c1Cl)C(=O)C(C1CCCC1)C2 (configuration not stated) | 141 | 0.14 | –
CCC1C(=O)c2c(cc(OCc3nnn[nH]3)c(Cl)c2Cl)C1c1ccccc1 (configuration not stated) | 5 | 0.06 | –
CCC1Cc2cc(OCC(=O)O)c(Cl)c(Cl)c2C1=O (configuration not stated) | 427 | 0.09 | LD50 [7]: 245 mg/kg; Ratio [8]: 2.8
